Test [1] relates to human foreskin fibroblast cells (HFF). The test can be described thus: Soluble collagen I, III and VI in HFF conditioned media (direct coat ELISA). Format: cell-based. The following applies: for ECM protein levels in the media of HFF cells: 6 hour treatment, following 72 hours; for collagen I concentration in the media: ARP, HRP, SBP 12.5 μg/ml, LP 160 μg/ml, MP 250 μg/ml, untreated control 0.08 μg/ml; for collagen VI in the cell media: untreated control 0.03 ug/ml; for collagen VI levels: both 5 and 7 days; for increase in collagen VI, steady state: 72 hours (ARP response not statistically significant, p=0.08); for collagen III levels: untreated control 0.11 μg/ml. As for the experimental part:
Primary human foreskin fibroblast cells (HFF) were seeded into 96 well plates at a density of 1.2×10^4 cells/well and cultured overnight in 10% fetal bovine serum/Dulbecco's minimum essential media (10% FBS/DMEM) at 37° C. and 5% CO2. The cells were then starved overnight in serum free DMEM and triplicate wells treated for six hours with a range of doses of proteins with peroxidase activity; horse radish peroxidase (HRP; 0.2-50 ug/ml), Arthromyces ramosus peroxidase (ARP; 0.2-50 ug/ml), microperoxidase (MP; 8-500 ug/ml), soy bean peroxidase (SBP; 0.2-100 ug/ml) and lactoperoxidase (LP; 10-310 ug/ml) (all obtained from Sigma-Aldrich). At the end of the six hour treatment period, the media was aspirated and replaced with fresh serum free DMEM and the cells cultured for a further 72 hours. […] This assay measures the reduction of oxidized, blue nonfluorescent Alamar Blue reagent to a pink fluorescent dye in the cell medium, such that the higher the amount of reduction, the greater the cell number and/or activity (O'Brien Eur J Biochem 267 2000). Briefly, cells were bathed in a 10% Alamar Blue/phosphate-buffered saline (PBS) solution for 30-60 minutes and fluorescence measured at wavelengths of 485 nm excitation and 595 nm emission using a Wallac Victor Multilabel HTS counter. Relative fluorescent units (RFU) for each sample were normalized to control wells (DMEM only treated cells) and data expressed as mean±standard error of the mean (sem) for triplicate wells. Experiments were repeated at least three times with the combined data from all experiments shown.
The amount of soluble collagen types I, III, and VI in HFF conditioned media was measured by a direct coat ELISA method using standard curves constructed from purified human collagen I, III or VI (extracted from human placenta; col I, BD Biosciences; col III and VI, Rocklands Immunochemicals) and fibronectin (extracted from human plasma, Chemicon). Samples and standards (20 μl/well) were added to a 384 well spectraplate (Packard BioScience) and left at room temperature (RT) overnight. The spectraplate was then washed 6 times with PBS-tween 0.05% (PBS-T) and 2.5% bovine serum albumin (BSA)/PBS blocking solution added to each well and the plate incubated for 1 hour at RT. The plate was then washed 6 times with PBS-T and primary antibody (0.25 μg/ml rabbit-anti-human-collagen I polyclonal; 2 μg/ml rabbit-anti-human-collagen III polyclonal; 0.25 μg/ml rabbit-anti-human-collagen VI polyclonal; 0.2 μg/ml rabbit-anti-human-fibronectin polyclonal, all from Rockland Immunochemicals) in 5% non-fat dairy milk added to each well for four hours at RT. After washing (6×PBS-T), europium tagged anti-rabbit secondary antibody (0.5 μg/ml 1% BSA/PBS; Wallac Oy) was added for 1 hour at RT. After a final wash (6×PBS-T), enhancement solution was added for at least 10 minutes and fluorescence measured at excitation 340 nm and emission 615 nm using a Wallac Victor Multilabel HTS counter. The respective ECM concentration of each sample was determined from the standard curve (μg/ml) and normalized to control wells (DMEM only treated cells) with the mean±sem for triplicate wells calculated. Experiments were repeated at least three times with the combined data from all experiments shown.
For orientation: An ELISA detects its analyte on a solid surface through an enzyme-linked reagent.

In the next test the test system is dermis. The test can be described thus: Fibrogenic response after intradermal injection. The format is in vivo, Sprague-Dawley rats. How it is done: Groups of up to 4-8 female Sprague-Dawley rats were lightly anaesthetized and the dorsum shaved. At different sites on their dorsum, each rat received a bolus, intradermal injection of 4 doses of a protein with peroxidase activity (LP, […]; HRP, 1.25-25 μg; SBP, 1.25-25 μg; or micro-peroxidase [MP], 5-125 μg), a vehicle control or TGFβ2 as a positive control. Arthromyces ramosus peroxidase (ARP) was also injected at one dose of 25 μg. Proteins with peroxidase activity were injected in a volume of 50 μl which was sufficient to create a small blister in the skin that resolved within a few minutes. Across the group of rats, each dose of proteins with peroxidase activity was injected into each of the different injection sites to control for any site-related, intra-rat variation. The rats were returned to their cage and left alone for 3 days after which they were killed by CO2 asphyxiation and the skin at the injection sites collected for analysis. The skin at the injection sites was excised using a 6 mm biopsy punch with each piece bisected and fixed in 10% buffered formalin. Fixed tissue was processed for histological assessment by graded dehydration and mounting in paraffin blocks. Blocks were sectioned and sections stained with haematoxylin and eosin (H&E) and Masson's trichrome for qualitative analysis by an experienced pathologist. H&E stained sections were scored for the “fibroblast reaction” (1+-4+) to reflect the number of fibroblast cells identified at the injection site, with 4+ representing the greatest response. H&E and Massons trichrome stained sections were used to evaluate the amount of deposited, collagen-rich extracellular matrix (ECM) that was associated with the fibroblast reaction at each injection site. The collagen-rich ECM deposition was scored 1+-3+ with 3+ representing the greatest response. The scores were combined across the group of rats and statistical analysis performed using a Kruskal-Wallis one way analysis of variance on ranks (ANOVA) followed by post-hoc t-test comparing the response of the proteins with peroxidase activity to the control using Dunn's or Dunnett's method, p<0.05 was considered significant.

Setting [2] is: doses between 6.25 and 50 μg/ml.
Where [3] appears, read: 50 μg and 125 μg, 3 days, p<0.05.
Where [4] appears, read: intradermal, 3 days, over the doses tested.

Regarding Arthromyces ramosus peroxidase [ARP], the “increase in collagen I compared to controls” value in test [1] (0.4 μg/ml, 72 hours) was found to be 1.4 fold. Besides, the “increase in collagen I compared to controls” value in test [1] (25 μg/ml, 72 hours) was determined as 5.8 fold. For the same molecule, the “decrease in collagen III compared to control levels” value in test [1] (25 and 50 μg/ml, 72 hours) is 50%. Besides, in test [1], the “ECM protein levels in the media of HFF cells” value (shortened to “ECM protein levels”) is “increased ECM protein levels dose dependently” and the “collagen VI levels” value is reported as “increased the collagen VI levels”. In test [1] (5 days), the “collagen I concentration in the media” value is 0.6 µg/mL. In addition, in test [1] (7 days), the “collagen I concentration in the media” value is 0.6 µg/mL and the “collagen VI in the cell media” value was found to be 0.11 µg/mL. Further, the “increase in collagen III” value in test [1] (any dose used, 72 hours) is recorded as “did not induce a significant increase”. Moreover, the “increase in collagen VI, steady state” value in test [1] (setting [2]) amounted to 2 fold. Further, in the test on dermis (25 μg, 72 hours), the “deposition of collagen rich ECM, histology score (1+-3+)” value is on record as “two” and the “fibroblast reaction, histology score (1+-4+)” value is “two”.
Take lactoperoxidase [LP]: the “increase in collagen I compared to controls” value in test [1] (80 μg/ml, 6 h treatment, 72 hours) was 4 fold. For the same molecule, in test [1] (310 μg/ml, 72 hours), the “increase in collagen I compared to controls” value was found to be 8 fold. In test [1] (160 and 310 μg/ml, 72 hours), the “increase in collagen VI levels” value stood at 2 fold. Further, in test [1], the “ECM protein levels” value is given as “increased ECM protein levels dose dependently” and the “collagen VI levels” value is listed as “increased the collagen VI levels”. Besides, in test [1] (5 days), the “collagen I concentration in the media” value came to 1.1 µg/mL and the “collagen III levels” value amounted to 0.18 µg/mL. Moreover, the “collagen VI in the cell media” value in test [1] (7 days) turned out to be 0.07 µg/mL. In test [1] (doses from 10-310 μg/ml, 72 hours), the “changes in collagen III levels (non-significant)” value is reported as 1.5-1.7 fold. In the test on dermis (setting [3]), the “deposition of collagen-rich ECM versus control” value was “significant increase compared to the control” and the “fibroblast reaction versus vehicle control” value is given as “statistically significant response”. Further, the “number of fibroblasts present at the injection site (H&E images)” value in the test with dermis (LP 125 μg, TGFβ 0.5 μg, 3 days) is on record as “profound increase in the number of fibroblasts”. In the test with dermis (setting [4]), the “deposition of collagen-rich ECM versus control” value is “dose-dependent effect” and the “fibroblast reaction / tissue fibroblast content at the injection site versus control” value was “dose-dependent increase in the fibroblast reaction”.
For microperoxidase [MP], the “ECM protein levels” value in test [1] is recorded as “increased ECM protein levels dose dependently”. Besides, the “collagen I concentration in the media” value in test [1] (5 days) came to 0.17 µg/mL. In test [1] (any dose used, 72 hours), the “increase in collagen VI” value was “did not induce a significant increase”. Moreover, in the test on dermis (setting [4]), the “deposition of collagen-rich ECM versus control” value is “stimulated the deposition of collagen-rich ECM in a significant, dose dependent manner” and the “fibroblast reaction / tissue fibroblast content at the injection site versus control” value is on record as “significantly increased the tissue fibroblast content”.
In the case of soy bean peroxidase [SBP], in test [1] (0.4 μg/ml, 72 hours), the “increase in collagen I compared to controls” value is on record as 1.6 fold and the “increase in collagen VI” value is recorded as 1.2 fold. Also, the “increase in collagen VI” value in test [1] (50 μg/ml, 72 hours) was determined as 5.4 fold. For the same molecule, the “increase in collagen I compared to controls” value in test [1] (25 and 50 μg/ml, 72 hours) is listed as 10.5 fold. Moreover, in test [1], the “ECM protein levels” value is “increased ECM protein levels dose dependently” and the “collagen VI levels” value is “increased the collagen VI levels”. Besides, in test [1] (5 days), the “collagen III levels” value was determined as 0.15 µg/mL. In addition, the “collagen VI in the cell media” value in test [1] (7 days) was found to be 0.09 µg/mL. In addition, the “increase in collagen III, steady state” value in test [1] (between 12.5 and 50 μg/ml, 72 hours) is 2.1-2.3 fold. Also, in the test with dermis (5-25 μg, 3 days, p<0.05), the “deposition of collagen-rich ECM versus control” value was “statistically significant response” and the “tissue fibroblast content versus control” value is given as “statistically significant response”. Further, in the test with dermis (setting [4]), the “deposition of collagen-rich ECM versus control” value is “markedly increased” and the “fibroblast reaction / tissue fibroblast content at the injection site versus control” value is reported as “markedly increased the tissue fibroblast content”.

B1: horse radish peroxidase (protein, UniProt P00433 31-338, looked up)
Peroxidase C1A: QLTPTFYDNSCPNVSNIVRDTIVNELRSDPRIAASILRLHFHDCFVNGCDASILLDNTTSFRTEKDAFGNANSARGFPVIDRMKAAVESACPRTVSCADLLTIAAQQSVTLAGGPSWRVPLGRRDSLQAFLDLANANLPAPFFTLPQLKDSFRNVGLNRSSDLVALSGGHTFGKNQCRFIMDRLYNFSNTGLPDPTLNTTYLQTLRGLCPLNGNLSALVDFDLRTPTIFDNKYYVNLEEQKGLIQSDQELFSSPNATDTIPLVRSFANSTQTFFNAFVEAMDRMGNITPLTGTQGQIRLNCRVVNSNS
Regarding B1, the “increase in collagen I compared to controls” value was found to be 1.5 fold in test [1] (0.2 μg/ml, 72 hours) and 10 fold in test [1] (50 μg/ml, 72 hours). In addition, in test [1] (1.56 μg/ml, 72 hours), the “increase in collagen VI compared to controls” value stood at 2 fold. For the same molecule, the “increase in collagen III compared to controls” value was determined as 3 fold in test [1] (3.12 μg/ml, 72 hours); 4 fold in test [1] (25 and 50 μg/ml, 72 hours). Moreover, the “ECM protein levels” value in test [1] was “increased ECM protein levels dose dependently”. For the same molecule, in test [1] (5 days), the “collagen III levels” value was 0.22 µg/mL. Besides, the “collagen III level” value in test [1] (7 days, 12.5 μg/ml, untreated control 0.06 μg/ml) amounted to 0.3 µg/mL. For the same molecule, the “collagen VI in the cell media” value in test [1] (7 days) came out at 0.13 µg/mL. The “collagen VI levels” value in test [1] is reported as “increased the collagen VI levels”. In test [1] (doses between 6.25 and 50 μg/ml, 72 hours), the “increase in collagen I, steady state response” value is 9-10 fold. Also, the “increase in collagen VI, steady state” value in test [1] (setting [2]) was 3-3.5 fold. The “deposition of collagen-rich ECM versus control” value is reported as “statistically significant response” in the test with dermis (25 μg, 3 days, p<0.05) and “markedly increased” with dermis (setting [4]). Also, in the test with dermis (25 μg, 3 days, p<0.05), the “tissue fibroblast content versus control” value is reported as “statistically significant response”. In addition, the “fibroblast reaction / tissue fibroblast content at the injection site versus control” value with dermis (setting [4]) was “markedly increased the tissue fibroblast content”.

The record behind these values is patent US20100239556A1, “PROMOTING ECM PRODUCTION BY FIBROBLAST CELLS AND/OR PROMOTING MIGRATION OF FIBROBLAST CELLS IN A BIOLOGICAL SYSTEM” (TGR BioScience Pty Ltd., priority 2006, published 2010).
